According to patent publication US20140256639A1, “PEPTOID NEUTRALIZING AGENTS” (The Regents of the University of California, priority 2013, published 2014):

Key:
[1] = system: proteases; conditions: physiological conditions; cited from earlier work
[2] = Heparin affinity chromatography (HAC), NaCl gradient elution; assay type: binding; conditions: pH 7.2, 50 mM sodium phosphate, gradient 0 to 1 M NaCl over 60 min, 0.65 mL/min
Procedure: The relative affinities of the peptoids in Table 2 for heparin were determined by heparin affinity chromatography (“HAC”). Peptoid solutions, typically 0.2 mM, were eluted by gradient elution; mobile phase A consisted of pH 7.2, 50 mM sodium phosphate buffer and mobile phase B consisted of the same buffer but with 1 M NaCl added. The flow rate was 0.65 mL/min and the gradient began with 100% mobile phase A and 0% mobile phase B, and ended at 60 min with 0% mobile phase A and 100% B although most of the peptoid runs were complete within 30 min or less.

[3] = system: heparin activity; conditions: Rabenstein and Wang 2006; cited from earlier work

Substance | stability / degradation by proteases [1] | also measured
Ac-SRGKAKVKAKVKDQTK-NH2 [D-HIPAP] | more stable than L-HIPAP | 
Ac-SRGKAKVKAKVKDQTK-NH2 [L-HIPAP] | more susceptible to degradation by proteases | 
H-[N(Orn)-N(All)-N(Spe)]3-NH2 [s9merAll] |  | HAC r.t. [2]: 20 ± 2.0 min
Ac-SRGKAKVKAKVKDQTK-NH2 (not fully specified; printed as Ac-SRGKAKVKAKVKDQTK-NH2) [L-HIPAP] |  | neutralizing heparin activity [3]: equally effective
